Laboratory results published in US9499495B2, “Quinazolines and azaquinazolines as dual inhibitors of RAS/RAF/MEK/ERK and PI3K/AKT/PTEN/mTOR pathways” (Asana Biosciences, LLC, priority 2013, dated 2016).

How the values were obtained:
PI3Kα = molecular target: T1, PI3Kα (Homo sapiens, UniProt P42336); assay: PI3 Kinase alpha TR-FRET assay; assay type: biochemical
T1 construct: made in house; host or cells: SF9 cells
Outline: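 Purified Sf9-expressed p110/p85α (5 ng) was pre-incubated with compound and PIP2 at rt, then ATP was added (PIP2 and ATP both 40 μM) for a 30 min reaction. PIP3 was detected by TR-FRET displacement of biotin-PIP3, and IC50 was taken from dose-response curves of the 665/615 nm emission ratio.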

B-RAFV600E = molecular target: T2, B-RAFV600E (Homo sapiens, UniProt P15056, V600E); assay: B-RAFV600E radiometric assay; assay type: biochemical; details: read-out: Kinase assay B-Raf
T2 construct: purchased Millipore, USA 14-557
T2 sequence (P15056 416-766 V600E limits assumed): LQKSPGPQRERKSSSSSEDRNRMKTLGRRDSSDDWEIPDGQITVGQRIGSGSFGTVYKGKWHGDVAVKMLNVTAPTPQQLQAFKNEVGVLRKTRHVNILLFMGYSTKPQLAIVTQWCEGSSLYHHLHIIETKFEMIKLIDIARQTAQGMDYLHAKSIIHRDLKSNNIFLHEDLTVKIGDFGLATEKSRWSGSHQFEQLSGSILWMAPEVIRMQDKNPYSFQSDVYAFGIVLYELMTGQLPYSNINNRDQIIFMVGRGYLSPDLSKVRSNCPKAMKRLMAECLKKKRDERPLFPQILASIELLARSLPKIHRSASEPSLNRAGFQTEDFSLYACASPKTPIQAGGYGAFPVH
Outline: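 B-RAFV600E was preincubated 45 min at rt with compound in 1% DMSO. MEK-K97M (0.5 μg), 5 μM final cold ATP and [γ-32P]ATP were then added for 2 h at rt. Phosphorylated MEK was captured on P81 paper and scintillation-counted; IC50 came from a sigmoidal dose-response fit.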

A375 cells = assay: XTT assay for cell viability, A375 cells; assay type: cell-based; details: Homo sapiens, A-375, 72 h
Outline: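 RKO and A375 cells seeded at 1000-2000/well overnight, then exposed to compound for 72 h at 37° C., 5% CO2. XTT (1 mg/ml)/PMS (25 μM) added for 2-3 h; absorbance at 450 nm. Growth relative to DMSO control (100%); GI50 from sigmoidal dose-response fit.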

mTOR kinase = molecular target: T3, mTOR kinase (Homo sapiens, UniProt P42345); assay: mTOR kinase TR-FRET assay; assay type: biochemical
T3 construct: purchased Millipore, US
T3 sequence (P42345 1362-2549 limits assumed): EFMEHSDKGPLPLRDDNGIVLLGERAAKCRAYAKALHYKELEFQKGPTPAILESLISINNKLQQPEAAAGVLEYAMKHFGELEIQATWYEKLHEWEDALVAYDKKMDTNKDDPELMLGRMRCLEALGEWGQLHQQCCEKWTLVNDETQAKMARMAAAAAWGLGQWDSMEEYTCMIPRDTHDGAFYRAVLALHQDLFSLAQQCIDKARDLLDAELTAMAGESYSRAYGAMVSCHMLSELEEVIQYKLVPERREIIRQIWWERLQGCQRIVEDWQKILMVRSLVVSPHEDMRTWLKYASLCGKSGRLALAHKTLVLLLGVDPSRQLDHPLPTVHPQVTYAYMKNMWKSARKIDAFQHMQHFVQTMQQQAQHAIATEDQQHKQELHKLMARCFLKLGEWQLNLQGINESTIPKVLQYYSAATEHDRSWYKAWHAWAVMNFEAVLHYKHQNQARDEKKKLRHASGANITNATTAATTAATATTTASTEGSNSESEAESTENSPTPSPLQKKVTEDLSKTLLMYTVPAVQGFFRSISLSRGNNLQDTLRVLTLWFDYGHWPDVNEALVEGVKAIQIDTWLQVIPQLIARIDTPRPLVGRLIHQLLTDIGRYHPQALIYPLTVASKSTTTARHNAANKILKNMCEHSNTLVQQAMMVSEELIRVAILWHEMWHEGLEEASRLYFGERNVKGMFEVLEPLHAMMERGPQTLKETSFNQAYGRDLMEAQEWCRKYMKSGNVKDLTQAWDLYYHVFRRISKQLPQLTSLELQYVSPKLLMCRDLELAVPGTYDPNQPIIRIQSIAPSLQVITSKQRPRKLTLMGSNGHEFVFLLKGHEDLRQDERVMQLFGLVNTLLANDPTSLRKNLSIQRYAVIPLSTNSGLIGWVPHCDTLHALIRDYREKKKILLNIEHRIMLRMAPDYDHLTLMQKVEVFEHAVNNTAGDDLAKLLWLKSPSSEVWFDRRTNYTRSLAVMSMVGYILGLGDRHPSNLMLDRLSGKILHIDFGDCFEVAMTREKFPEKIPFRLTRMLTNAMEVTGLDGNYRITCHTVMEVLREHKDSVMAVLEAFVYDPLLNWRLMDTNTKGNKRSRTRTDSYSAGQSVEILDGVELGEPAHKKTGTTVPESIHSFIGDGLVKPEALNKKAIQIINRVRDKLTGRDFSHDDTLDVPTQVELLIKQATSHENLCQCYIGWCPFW
Outline: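 TR-FRET with ULight-p70 S6K (Thr 389) peptide (50 nM) and 20 μM ATP in 50 mM HEPES pH 7.5, 1 mM EGTA, 3 mM MnCl2; compound pre-incubated with enzyme before substrate addition, reaction at rt, EDTA-stopped. Eu anti-phospho antibody read 665/615 nm; IC50 from sigmoidal dose-response fit.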

T1 sequence (P42336 whole entry, species assumed): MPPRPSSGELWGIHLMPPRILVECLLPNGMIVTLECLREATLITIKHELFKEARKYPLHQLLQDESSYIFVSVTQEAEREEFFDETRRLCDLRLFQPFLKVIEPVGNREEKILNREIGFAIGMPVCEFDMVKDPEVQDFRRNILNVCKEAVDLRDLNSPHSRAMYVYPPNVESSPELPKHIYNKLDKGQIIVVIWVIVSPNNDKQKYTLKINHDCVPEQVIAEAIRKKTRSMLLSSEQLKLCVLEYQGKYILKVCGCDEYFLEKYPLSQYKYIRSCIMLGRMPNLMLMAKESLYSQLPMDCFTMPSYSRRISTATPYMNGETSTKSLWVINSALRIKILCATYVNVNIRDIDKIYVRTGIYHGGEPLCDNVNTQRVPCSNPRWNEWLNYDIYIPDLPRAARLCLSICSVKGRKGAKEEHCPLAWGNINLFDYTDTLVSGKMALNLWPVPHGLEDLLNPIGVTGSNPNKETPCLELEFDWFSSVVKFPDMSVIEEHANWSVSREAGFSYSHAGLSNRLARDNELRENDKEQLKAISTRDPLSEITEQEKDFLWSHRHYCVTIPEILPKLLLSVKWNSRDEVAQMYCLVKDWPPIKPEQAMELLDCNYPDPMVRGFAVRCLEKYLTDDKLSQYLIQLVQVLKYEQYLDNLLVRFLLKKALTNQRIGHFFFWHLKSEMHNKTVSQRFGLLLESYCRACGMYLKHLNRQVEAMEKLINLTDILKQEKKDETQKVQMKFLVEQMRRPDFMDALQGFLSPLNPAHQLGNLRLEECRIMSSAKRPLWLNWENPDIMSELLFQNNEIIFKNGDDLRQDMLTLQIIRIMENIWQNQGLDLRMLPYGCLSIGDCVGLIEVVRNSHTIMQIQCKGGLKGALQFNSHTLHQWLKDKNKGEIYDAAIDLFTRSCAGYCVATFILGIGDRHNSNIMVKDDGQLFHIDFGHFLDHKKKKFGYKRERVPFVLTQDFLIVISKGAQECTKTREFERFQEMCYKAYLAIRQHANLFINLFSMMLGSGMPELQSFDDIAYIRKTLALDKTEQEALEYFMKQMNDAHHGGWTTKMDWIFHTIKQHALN
T1 sequence (P27986 whole entry partner, species assumed): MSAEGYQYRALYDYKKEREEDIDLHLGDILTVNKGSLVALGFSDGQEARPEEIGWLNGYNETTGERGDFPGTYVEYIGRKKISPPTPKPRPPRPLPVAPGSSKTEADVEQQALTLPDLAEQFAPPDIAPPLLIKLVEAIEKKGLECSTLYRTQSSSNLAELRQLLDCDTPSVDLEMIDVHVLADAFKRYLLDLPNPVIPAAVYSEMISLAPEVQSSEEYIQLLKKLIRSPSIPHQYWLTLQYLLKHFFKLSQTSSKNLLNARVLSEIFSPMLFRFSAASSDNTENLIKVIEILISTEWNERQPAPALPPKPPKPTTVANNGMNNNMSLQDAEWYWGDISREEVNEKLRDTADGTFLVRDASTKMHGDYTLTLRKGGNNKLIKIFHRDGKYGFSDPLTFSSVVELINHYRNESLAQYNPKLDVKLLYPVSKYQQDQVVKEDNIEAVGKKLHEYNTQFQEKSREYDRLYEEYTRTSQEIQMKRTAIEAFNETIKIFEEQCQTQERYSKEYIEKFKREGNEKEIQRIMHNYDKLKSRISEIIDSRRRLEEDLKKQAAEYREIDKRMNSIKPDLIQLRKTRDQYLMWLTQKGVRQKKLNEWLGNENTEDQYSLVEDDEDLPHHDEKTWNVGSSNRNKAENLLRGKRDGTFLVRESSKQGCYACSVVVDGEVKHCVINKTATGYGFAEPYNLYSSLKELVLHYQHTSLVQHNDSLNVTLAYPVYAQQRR

Row | SMILES | IC50 (PI3Kα) | IC50 (B-RAFV600E) | IC50 (A375 cells) | IC50 (mTOR kinase)
1 | C[C@H]1COCCN1c1nc(-c2cnc(N)cc2F)nc2ccc(-c3cccc(NS(=O)(=O)CCCF)c3F)nc12 [Example 129, (S)-N-(3-(2-(6-amino-4-fluoropyridin-3-yl)-4-(3-methylmorpholino)pyrido[3,2-d]pyrimidin-6-yl)-2-fIuorophenyl)-3-fluoropropane-1-sulfonamide] | 1 to 100 nM | 1 to 100 nM | 100 to 1000 nM | 1 to 100 nM
2 | COc1cc2nc(-c3cnc(N)nc3)nc(N3CCOCC3)c2cc1-c1cccc(NS(=O)(=O)CCCF)c1F [Example 11, N-(3-(2-(2-aminopyrimidin-5-yl)-7-methoxy-4-morpholinoquinazolin-6-yl)-2-fluorophenyl)-3-fluoropropane-1-sulfonamide] | 100 to 1000 nM | 1 to 100 nM | 100 to 1000 nM | 1 to 100 nM
3 | CNc1ccc(-c2nc(N3CCOCC3)c3nc(-c4cccc(NS(=O)(=O)CCCF)c4F)ccc3n2)cn1 [Example 113, 3-fluoro-N-(2-fluoro-3-(2-(6-(methylamino)pyridin-3-yl)-4-morpholinopyrido[3,2-d]pyrimidin-6-yl)phenyl)propane-1-sulfonamide] | 1 to 100 nM | 1 to 100 nM | 100 to 1000 nM | 1 to 100 nM
4 | O=S(=O)(CCCF)Nc1cccc(-c2ccc3nc(-c4ccc(NCCCO)nc4)nc(N4CCOCC4)c3n2)c1F [Example 111, 3-fluoro-N-(2-fluoro-3-(2-(6-((3-hydroxypropyl)amino)pyridin-3-yl)-4-morpholinopyrido[3,2-d]pyrimidin-6-yl)phenyl)propane-1-sulfonamide] | 100 to 1000 nM | 1 to 100 nM | 100 to 1000 nM | 1 to 100 nM
5 | COc1cc(-c2cccc(NS(=O)(=O)CCCF)c2F)cc2c(N3CCOC[C@H]3C)nc(-c3cnc(N)cc3F)nc12 [Example 135, (R)-N-(3-(2-(6-amino-4-fluoropyridin-3-yl)-8-methoxy-4-(3-methylmorpholino)quinazolin-6-yl)-2-fluorophenyl)-3-fluoropropane-1-sulfonamide] | 1000 to 10000 nM | 1 to 100 nM | 1 to 100 nM | 1 to 100 nM
6 | C[C@@H]1COCCN1c1nc(-c2ccc(N)nc2)nc2ccc(-c3cccc(NS(=O)(=O)CCCF)c3F)nc12 [Example 96, (R)-N-(3-(2-(6-aminopyridin-3-yl)-4-(3-methylmorpholino)pyrido[3,2-d]pyrimidin-6-yl)-2-fluorophenyl)-3-fluoropropane-1-sulfonamide] | 100 to 1000 nM | 1 to 100 nM | 1 to 100 nM | 100 to 1000 nM
7 | COc1cc(-c2cccc(NS(=O)(=O)CCCF)c2F)cc2c(N3CCOC[C@H]3C)nc(-c3cnc(N)c(F)c3)nc12 [Example 134, (R)-N-(3-(2-(6-amino-5-fluoropyridin-3-yl)-8-methoxy-4-(3-methylmorpholino)quinazolin-6-yl)-2-fluorophenyl)-3-fluoropropane-1-sulfonamide] | 1000 to 10000 nM | 1 to 100 nM | 1 to 100 nM | 1 to 100 nM
8 | C[C@@H]1COCCN1c1nc(-c2cnc(N)nc2)nc2ccc(-c3cccc(NS(=O)(=O)CCCF)c3F)nc12 [Example 97, (R)-N-(3-(2-(2-aminopyrimidin-5-yl)-4-(3-methylmorpholino)pyrido[3,2-d]pyrimidin-6-yl)-2-fluorophenyl)-3-fluoropropane-1-sulfonamide] | 1 to 100 nM | 1 to 100 nM | 100 to 1000 nM | 100 to 1000 nM
9 | C[C@H]1COCCN1c1nc(-c2cnc(N)cc2C(F)(F)F)nc2ccc(-c3cccc(NS(=O)(=O)CCCF)c3F)nc12 [Example 108, (S)-N-(3-(2-(6-amino-4-(trifluoromethyl)pyrldin-3-yl)-4-(3-methylmorpholino)pyrido[3,2-d]pyrimidin-6-yl)-2-fluorophenyl)-3-fluoropropane-1-sulfonamide] | 1 to 100 nM | 1 to 100 nM | 100 to 1000 nM | 100 to 1000 nM
10 | Nc1ncc(-c2nc(N3CCOCC3)c3cc(-c4cccc(NS(=O)(=O)CCCF)c4F)cc(N4CCOCC4)c3n2)cn1 [Example 69, N-(3-(2-(2-aminopyrimidin-5-yl)-4,8-dimorpholinoquinazolin-6-yl)-2-fluorophenyl)-3-fluoropropane-1-sulfonamide] | 100 to 1000 nM | 1 to 100 nM | 1 to 100 nM | 1 to 100 nM
11 | CNC(=O)Nc1ccc(-c2nc(N3CCOCC3)c3cc(-c4cccc(NS(=O)(=O)CCCF)c4F)cc(OC)c3n2)cn1 [Example 39, 3-fluoro-N-(2-fluoro-3-(8-methoxy-2-(6-(3-methylureido)pyridin-3-yl)-4-morpholinoquinazolin-6-yl)phenyl)propane-1-sulfonamide] | 100 to 1000 nM | 1 to 100 nM | 1 to 100 nM | 1 to 100 nM
12 | Nc1cc(C(F)(F)F)c(-c2nc(N3CCOCC3)c3nc(-c4cccc(NS(=O)(=O)CCCF)c4F)ccc3n2)cn1 [Example 94, N-(3-(2-(6-amino-4-(trifluoromethyl)pyridin-3-yl)-4-morpholinopyrido[3,2-d]pyrimidin-6-yl)-2-fluorophenyl)-3-fluoropropane-1-sulfonamide] | 1 to 100 nM | 1 to 100 nM | 100 to 1000 nM | 1 to 100 nM
13 | COc1cc(-c2c(F)ccc(NS(=O)(=O)CCCF)c2F)cc2c(N3CCOCC3)nc(-c3ccc(N)nc3)nc12 [Example 79, N-(3-(2-(6-aminopyridin-3-yl)-8-methoxy-4-morpholinoquinazolin-6-yl)-2,4-difluorophenyl)-3-fluoropropane-1-sulfonamide] | 100 to 1000 nM | 1 to 100 nM | 1 to 100 nM | 1 to 100 nM

More lines, now with the values ahead:

Row | IC50 (PI3Kα) | IC50 (B-RAFV600E) | IC50 (A375 cells) | IC50 (mTOR kinase) | SMILES
14 | 1 to 100 nM | 100 to 1000 nM | 100 to 1000 nM | 100 to 1000 nM | CCCS(=O)(=O)Nc1cccc(-c2ccc3nc(-c4cnc(N)nc4)nc(N4CCOCC4)c3n2)c1F [Example 7, N-(3-(2-(2-aminopyrimidin-5-yl)-4-morpholinopyrido[3,2-d]pyrimidin-6-yl)-2-fluorophenyl)propane-1-sulfonamide]
15 | 1 to 100 nM | 1 to 100 nM | 100 to 1000 nM | 1 to 100 nM | Nc1ccc(-c2nc(N3CCOCC3)c3nc(-c4cccc(NS(=O)(=O)CCCF)c4F)ccc3n2)cn1 [Example 88, N-(3-(2-(6-aminopyridin-3-yl)-4-morpholinopyrido[3,2-d]pyrimidin-6-yl)-2-fluorophenyl)-3-fluoropropane-1-sulfonamide]
16 | 100 to 1000 nM | 1 to 100 nM | 100 to 1000 nM | 100 to 1000 nM | Cc1cc(-c2nc(N3CCOCC3)c3nc(-c4cccc(NS(=O)(=O)CCCF)c4F)ccc3n2)cnc1N [Example 90, N-(3-(2-(6-amino-5-methylpyridin-3-yl)-4-morpholinopyrido[3,2-d]pyrimidin-6-yl)-2-fluorophenyl)-3-fluoropropane-1-sulfonamide]
17 | 1 to 100 nM | 100 to 1000 nM | 100 to 1000 nM | 1 to 100 nM | CCCS(=O)(=O)Nc1cccc(-c2ccc3nc(-c4ccc(N)nc4)nc(N4CCOCC4)c3n2)c1F [Example 86, N-(3-(2-(6-aminopyridin-3-yl)-4-morpholinopyrido[3,2-d]pyrimidin-6-yl)-2-fluorophenyl)propane-1-sulfonamide]
18 | 1 to 100 nM | 1 to 100 nM | 100 to 1000 nM | 1 to 100 nM | Nc1cc(C(F)(F)F)c(-c2nc(N3CCOCC3)c3nc(-c4cccc(NS(=O)(=O)c5c(F)cccc5F)c4F)ccc3n2)cn1 [Example 106, N-(3-(2-(6-amino-4-(trifluoromethyl)pyridin-3-yl)-4-morpholinopyrido[3,2-d]pyrimidin-6-yl)-2-fluorophenyl)-2,6-difluorobenzenesulfonamide]
19 | 100 to 1000 nM | 1 to 100 nM | 100 to 1000 nM | 1 to 100 nM | Nc1ccc(-c2nc(N3CCOCC3)c3nc(-c4cccc(NS(=O)(=O)c5c(F)cccc5F)c4F)ccc3n2)cn1 [Example 95, N-(3-(2-(6-aminopyridin-3-yl)-4-morpholinopyrido[3,2-d]pyrimidin-6-yl)-2-fluorophenyl)-2,6-difluorobenzenesulfonamide]
20 | 1 to 100 nM | 1 to 100 nM | 100 to 1000 nM | 1 to 100 nM | Nc1ncc(-c2nc(N3CCOCC3)c3nc(-c4cccc(NS(=O)(=O)CCCF)c4F)ccc3n2)cn1 [Example 87, N-(3-(2-(2-aminopyrimidin-5-yl)-4-morpholinopyrido[3,2-d]pyrimidin-6-yl)-2-fluorophenyl)-3-fluoropropane-1-sulfonamide]
21 | 1 to 100 nM | 1 to 100 nM | 100 to 1000 nM | 100 to 1000 nM | Nc1ncc(-c2nc(N3CCOCC3)c3nc(-c4cccc(NS(=O)(=O)c5cc(F)ccc5F)c4F)ccc3n2)cn1 [Example 93, N-(3-(2-(2-aminopyrimidin 5-yl)-4-morpholinopyrido[3,2-d]pyrimidin-6-yl)-2-fluorophenyl)-2,5-difluorobenzenesulfonamide]
